Results published in the supplement of paper PMC9265050, “Inhibition of RNA Binding in SND1 Increases the Levels of miR-1-3p and Sensitizes Cancer Cells to Navitoclax” (Cancers, 2022).

System: SW480
Experiment: drug sensitivity score (DSS, integrated dose-response area); higher = more sensitive (stronger viability reduction); extreme values may be limits of the assay
In short: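 The drug sensitivity score is the integrated area under a fitted non-linear dose–response model. It was derived from SW480 cells with doxycycline-inducible control or SND1-targeting shRNA, induced with 0.1 µg/mL doxycycline for 7 days and plated at 1000 cells per well on 384-well plates of 525 commercially available small-molecule inhibitors at five concentrations. CellTiter-Glo measured viability after 72 h.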

[1] = shRNA: SND1 shRNA1 (SND1 silenced)
[2] = shRNA: SND1 shRNA2 (SND1 silenced)
[3] = shRNA: control shRNA (non-targeting)

Row | SMILES | drug sensitivity score [1] [DSS] | drug sensitivity score [2] [DSS] | drug sensitivity score [3] [DSS]
1 | C[C@H]1C[C@@H]2[C@H]([C@@H](O)C[C@@]3(C)[C@H]2CC[C@]3(O)C(=O)CO)[C@@]2(C)C=CC(=O)C=C12 [Methylprednisolone] | 0 | 1.4 | 0
2 | Cc1c(NC(=O)OC[C@@H]2COCCN2)cn2ncnc(Nc3ccc4c(cnn4Cc4cccc(F)c4)c3)c12 | 2 | 3.1 | 4
3 | CCC/C=C/C=C/C(=O)O[C@H]1/C(=C/C(=O)OC)C[C@H]2C[C@H]([C@@H](C)O)OC(=O)C[C@H](O)C[C@@H]3C[C@H](OC(C)=O)C(C)(C)[C@](O)(C[C@@H]4C/C(=C/C(=O)OC)C[C@H](/C=C/C(C)(C)[C@]1(O)O2)O4)O3 [Bryostatin 1] | 1.7 | 0.6 | 0
4 | O=C(Nc1cccc(NC(=O)c2cccc(O)c2O)c1)c1cccc(O)c1O [MST-312] | 7.6 | 5.2 | 8.2
5 | C[C@@H](Oc1ccc2[nH]nc(/C=C/c3cnn(CCO)c3)c2c1)c1c(Cl)cncc1Cl | 8.9 | 3.6 | 4.2
6 | C=CC(=O)N1CCC[C@@H](n2nc(-c3ccc(Oc4ccccc4)cc3)c3c(N)ncnc32)C1 [Ibrutinib] | 0 | 0.6 | 0
7 | C[C@@H](Nc1cc(F)cc(F)c1)c1cc(C(=O)N(C)C)cc2c(=O)cc(N3CCOCC3)oc12 [AZD-8186] | 0 | 0 | 0
8 | O=C(O)C(=O)O.[NH-][C@@H]1CCCC[C@H]1[NH-].[Pt+2] [Oxaliplatin] | 14 | – | 16.7
9 | O=[N+]([O-])c1ccc2c(c1)S(=O)(=O)C=C2 [Stattic] | 16 | 15.8 | 9.5
10 | COC1=CC(c2cc3ccccc3[nH]2)=N/C1=C\c1[nH]c(C)cc1C [Obatoclax] | 2.5 | 0 | 0.1
11 | O=C(/C=C/c1cccc(S(=O)(=O)Nc2ccccc2)c1)NO [Belinostat] | 16.4 | 13.8 | 12.7
12 | CCCS(=O)(=O)Nc1ccc(F)c(C(=O)c2c[nH]c3ncc(-c4ccc(Cl)cc4)cc23)c1F [Vemurafenib] | 0 | 0.1 | 0
13 | CN1CC[C@@H](NC(=O)Nc2ccc(C#N)cc2)C[C@@H]1c1nc2ccccc2[nH]1 [Glasdegib] | 0 | 0 | 5.6
14 | O=C1CN2Cc3c(ccc(Cl)c3Cl)N=C2N1 [Anagrelide] | 0 | 0 | 0
15 | C[C@]1(O)C[C@@H](c2nc(-c3ccc4ccc(-c5ccccc5)nc4c3)c3c(N)nccn32)C1 [Linsitinib] | 0 | 0.1 | 0.2
16 | CNC(=O)c1cccc2cc(Oc3ccnc4cc(OCC5(N)CC5)c(OC)cc34)ccc12 [Lucitanib] | 2.3 | 0.6 | 3
17 | COC(=O)C[C@](O)(CCCC(C)(C)O)C(=O)O[C@@H]1C(OC)=C[C@]23CCCN2CCc2cc4c(cc2[C@H]13)OCO4 [Omacetaxine] | 21.9 | 23.5 | 23.3
18 | CO[C@@]12[C@H](COC(N)=O)C3=C(C(=O)C(C)=C(N)C3=O)N1C[C@@H]1N[C@@H]12 [Mitomycin C] | 2.7 | 2.1 | 1
19 | CNNCc1ccc(C(=O)NC(C)C)cc1 [Procarbazine] | 0 | 0 | 0
20 | Cc1nn(C)c(COc2ccc(N3CCN(S(=O)(=O)N(C)C)CC3)cc2)c1-c1cccc2c(CCCOc3cccc4ccccc34)c(C(=O)O)n(CCN3CCOCC3)c12 | 4.9 | 4.4 | 5.7
21 | Nc1nc(Cl)nc2c1ncn2[C@H]1C[C@H](O)[C@@H](CO)O1 [Cladribine] | 2.4 | 0 | 0.5
22 | Nc1ncnc2c1c(COc1cccc(Cl)c1)nn2C1CCOCC1 | 0 | 0.1 | 0
23 | CC(C)(C)Cn1c(N)nc2ccc(-c3[nH]c(C(C)(C)C)nc3-c3ccc(F)cc3)nc21 [Ralimetinib] | 1.7 | 0 | 0.2
24 | CCN1CCN(Cc2ccc(Nc3ncc(F)c(-c4cc(F)c5nc(C)n(C(C)C)c5c4)n3)nc2)CC1 [Abemaciclib] | 4 | 0.2 | 4.1
25 | COc1cc2c(N3CCN(C(=O)Nc4ccc(OC(C)C)cc4)CC3)ncnc2cc1OCCCN1CCCCC1 [Tandutinib] | 0.5 | 4.3 | 3
26 | O=C(Cc1ccc(-c2ccc(OCCN3CCOCC3)cc2)cn1)NCc1ccccc1 [KX2-391] | 15 | 17.4 | 18.9
